Assay results taken from patent publication US20240398805A1, “QUINAZOLINE DERIVED COMPOUNDS AS EGFR INHIBITORS AND THEIR USES THEREOF” (ACCUTAR BIOTECHNOLOGY INC., priority 2021, published 2024).

Assays:
Format in all cases: cell-based
HCC827 cells = test: Cell growth inhibition (CellTiter-Glo, 3 days) in HCC827; conditions: Homo sapiens, 72 h, 3 days after administration
Method in brief: (§1)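 HCC827 cells were plated at 5000 cells/well in RPMI with 10% FBS, and A431 cells at the same density in DMEM with 10% FBS. After overnight attachment, compounds were added at various concentrations. Luminescence was recorded after plates were equilibrated to room temperature and incubated 10 min with reagent.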

[1] = test system: HCC827-SVD cells (human EGFR exon 20 insertion mutant D770_N771 insSVD); test: Cell growth inhibition (CellTiter-Glo, 3 days) in HCC827-SVD; conditions: 72 h, 3 days after administration
Method in brief: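 HCC827 cells carrying lentiviral codon-optimized EGFR D770_N771 insSVD, with endogenous EGFR knocked out by CRISPR (single clone), seeded at 5000 cells/well in RPMI with 10% FBS. Viability read by CellTiter-Glo luminescence.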

[2] = test system: HCC827-ASV cells (human EGFR exon 20 insertion mutant A769_D770insASV); test: Cell growth inhibition (CellTiter-Glo, 3 days) in HCC827-ASV; conditions: 72 h, 3 days after administration
Method in brief: (§2)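 HCC827 cells lentivirally transduced with codon-optimized ASV or YVMA insertion mutants were seeded at 5000 cells/well in RPMI with 10% FBS and incubated overnight. Compound was added at various concentrations from a 10× stock in medium, with 3 days' incubation. Viability read by CellTiter-Glo luminescence.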

[3] = test system: HCC827-YVMA cells (human ERBB2 exon20 insertion mutant A775_G776ins YVMA); test: Cell growth inhibition (CellTiter-Glo, 3 days) in HCC827-YVMA; conditions: 72 h, 3 days after administration
Method in brief: as §2

A431 cells = test: Cell growth inhibition (CellTiter-Glo, 3 days) in A431; conditions: Homo sapiens, A-431, 72 h, 3 days after administration
Method in brief: as §1

| Compound | GI50 (HCC827 cells) | GI50 [1] | GI50 [2] | GI50 [3] | GI50 (A431 cells) |
| --- | --- | --- | --- | --- | --- |
| C=CC(=O)N1CCC(Nc2cc3c(Nc4ccc(Oc5ccnc(N6CCC(N)CC6)c5)cc4F)ncnc3cc2OC)CC1 [Example 178, 1-(4-((4-((4-((2-(4-aminopiperidin-1-yl)pyridin-4-yl)oxy)-2-fluorophenyl)amino)-7-methoxyquinazolin-6-yl)amino)piperidin-1-yl)prop-2-en-1-one] | ≥ 1000 nM | 300 to 600 nM | 300 to 600 nM | 300 to 600 nM | ≥ 1000 nM |
| C=CC(=O)N1CCC(Nc2cc3c(Nc4ccc(Oc5ccnc(N6CCN(C)[C@@H](C)C6)c5)cc4F)ncnc3cc2OC)CC1 [Example 179, (S)-1-(4-((4-((4-((2-(3,4-dimethylpiperazin-1-yl)pyridin-4-yl)oxy)-2-fluorophenyl)amino)-7-methoxyquinazolin-6-yl)amino)piperidin-1-yl)prop-2-en-1-one] | ≥ 1000 nM | 60 to 100 nM | < 30 nM | 30 to 60 nM | ≥ 1000 nM |
| C=CC(=O)N1CCC(Nc2cc3c(Nc4ccc(Oc5ccnc(N6CCN(C)[C@H](C)C6)c5)cc4F)ncnc3cc2OC)CC1 [Example 180, (R)-1-(4-((4-((4-((2-(3,4-dimethylpiperazin-1-yl)pyridin-4-yl)oxy)-2-fluorophenyl)amino)-7-methoxyquinazolin-6-yl)amino)piperidin-1-yl)prop-2-en-1-one] | ≥ 1000 nM | 30 to 60 nM | 30 to 60 nM | 30 to 60 nM | ≥ 1000 nM |
| C=CC(=O)N1CCC(Nc2cc3c(Nc4ccc(Oc5ccnc(C(=O)N(C)C)c5)cc4F)ncnc3cc2OC)CC1 [Example 182, 4-(4-((6-((1-acryloylpiperidin-4-yl)amino)-7-methoxyquinazolin-4-yl)amino)-3-fluorophenoxy)-N,N-dimethylpicolinamide] | 600 to 1000 nM | 600 to 1000 nM | 600 to 1000 nM | 300 to 600 nM | ≥ 1000 nM |
| C=CC(=O)N1CCC(Nc2cc3c(Nc4ccc(Oc5ccnc(NC6COC6)c5)cc4F)ncnc3cc2OC)CC1 [Example 183, 1-(4-((4-((2-fluoro-4-((2-(oxetan-3-ylamino)pyridin-4-yl)oxy)phenyl)amino)-7-methoxyquinazolin-6-yl)amino)piperidin-1-yl)prop-2-en-1-one] | ≥ 1000 nM | ≥ 1000 nM | ≥ 1000 nM | ≥ 1000 nM | ≥ 1000 nM |
| C=CC(=O)N1CCC(Nc2cc3c(Nc4ccc(Oc5ccnc(NC6CCN(C)CC6)c5)cc4F)ncnc3cc2OC)CC1 [Example 184, 1-(4-((4-((2-fluoro-4-((2-((1-methylpiperidin-4-yl)amino)pyridin-4-yl)oxy)phenyl)amino)-7-methoxyquinazolin-6-yl)amino)piperidin-1-yl)prop-2-en-1-one] | ≥ 1000 nM | ≥ 1000 nM | ≥ 1000 nM | ≥ 1000 nM | ≥ 1000 nM |
| C=CC(=O)N1CCC(Nc2cc3c(Nc4ccc(Oc5ccnc(C6CCN(C)CC6)c5)cc4F)ncnc3cc2OC)CC1 [Example 186, 1-(4-((4-((2-fluoro-4-((2-(1-methylpiperidin-4-yl)pyridin-4-yl)oxy)phenyl)amino)-7-methoxyquinazolin-6-yl)amino)piperidin-1-yl)prop-2-en-1-one] | 600 to 1000 nM | ≥ 1000 nM | ≥ 1000 nM | ≥ 1000 nM | ≥ 1000 nM |
| C=CC(=O)N1CCC(Nc2cc3c(Nc4ccc(Oc5ccnc(N6CCN(C(C)C)CC6)c5)cc4F)ncnc3cc2OC)CC1 [Example 187, 1-(4-((4-((2-fluoro-4-((2-(4-isopropylpiperazin-1-yl)pyridin-4-yl)oxy)phenyl)amino)-7-methoxyquinazolin-6-yl)amino)piperidin-1-yl)prop-2-en-1-one] | ≥ 1000 nM | 100 to 300 nM | 100 to 300 nM | 300 to 600 nM | ≥ 1000 nM |
| C=CC(=O)N1CCC(Oc2cc3c(Nc4ccc(Oc5ccnc(N6CC7C(C6)C7(F)F)c5)cc4F)ncnc3cc2OC)CC1 (centres unmarked) [Example 188, 1-(4-((4-((4-((2-(6,6-difluoro-3-azabicyclo[3.1.0]hexan-3-yl)pyridin-4-yl)oxy)-2-fluorophenyl)amino)-7-methoxyquinazolin-6-yl)oxy)piperidin-1-yl)prop-2-en-1-one] | 60 to 100 nM | < 30 nM | < 30 nM | 30 to 60 nM | 100 to 300 nM |
| C=CC(=O)N1CCC(Nc2cc3c(Nc4ccc(Oc5ccnc(-c6nc(C)ns6)c5)cc4F)ncnc3cc2OC)CC1 [Example 192, 1-(4-((4-((2-fluoro-4-((2-(3-methyl-1,2,4-thiadiazol-5-yl)pyridin-4-yl)oxy)phenyl)amino)-7-methoxyquinazolin-6-yl)amino)piperidin-1-yl)prop-2-en-1-one] | 60 to 100 nM | < 30 nM | < 30 nM | < 30 nM | 100 to 300 nM |
| C=CC(=O)N1CCC(Nc2cc3c(Nc4ccc(Oc5ccnc(N6CCC(F)(F)C6)c5)cc4F)ncnc3cc2OC)CC1 [Example 194, 1-(4-((4-((4-((2-(3,3-difluoropyrrolidin-1-yl)pyridin-4-yl)oxy)-2-fluorophenyl)amino)-7-methoxyquinazolin-6-yl)amino)piperidin-1-yl)prop-2-en-1-one] | 60 to 100 nM | < 30 nM | < 30 nM | < 30 nM | 300 to 600 nM |
| C=CC(=O)N1CCC(Nc2cc3c(Nc4ccc(Oc5ccnc(N6CCC(C)(C#N)CC6)c5)cc4F)ncnc3cc2OC)CC1 [Example 200, 1-(4-(4-((6-((1-acryloylpiperidin-4-yl)amino)-7-methoxyquinazolin-4-yl)amino)-3-fluorophenoxy)pyridin-2-yl)-4-methylpiperidine-4-carbonitrile] | 60 to 100 nM | 30 to 60 nM | 30 to 60 nM | 60 to 100 nM | ≥ 1000 nM |

Next, values leading:

| GI50 (HCC827 cells) | GI50 [1] | GI50 [2] | GI50 [3] | GI50 (A431 cells) | Compound |
| --- | --- | --- | --- | --- | --- |
| 300 to 600 nM | < 30 nM | < 30 nM | < 30 nM | ≥ 1000 nM | C=CC(=O)N1CCC(Nc2cc3c(Nc4ccc(Oc5ccnc(N6C[C@H](OC)[C@H](OC)C6)c5)cc4F)ncnc3cc2OC)CC1 [Example 189, 1-(4-((4-((4-((2-((3R,4S)-3,4-dimethoxypyrrolidin-1-yl)pyridin-4-yl)oxy)-2-fluorophenyl)amino)-7-methoxyquinazolin-6-yl)amino)piperidin-1-yl)prop-2-en-1-one] |
| 30 to 60 nM | < 30 nM | < 30 nM | < 30 nM | 300 to 600 nM | C=CC(=O)N1CCC(Nc2cc3c(Nc4ccc(Oc5ccnc(N6C[C@H]7COC[C@H]7C6)c5)cc4F)ncnc3cc2OC)CC1 [Example 190, 1-(4-((4-((2-fluoro-4-((2-((3aR,6aS)-tetrahydro-1H-furo[3,4-c]pyrrol-5(3H)-yl)pyridin-4-yl)oxy)phenyl)amino)-7-methoxyquinazolin-6-yl)amino)piperidin-1-yl)prop-2-en-1-one] |
| 100 to 300 nM | < 30 nM | < 30 nM | < 30 nM | 600 to 1000 nM | C=CC(=O)N1CCC(Nc2cc3c(Nc4ccc(Oc5ccnc(N6CC[C@@H](F)C6)c5)cc4F)ncnc3cc2OC)CC1 [Example 195, (R)-1-(4-((4-((2-fluoro-4-((2-(3-fluoropyrrolidin-1-yl)pyridin-4-yl)oxy)phenyl)amino)-7-methoxyquinazolin-6-yl)amino)piperidin-1-yl)prop-2-en-1-one] |
| 60 to 100 nM | < 30 nM | < 30 nM | < 30 nM | 100 to 300 nM | C=CC(=O)N1CCC(Nc2cc3c(Nc4ccc(Oc5ccnc(N6CC[C@H](F)C6)c5)cc4F)ncnc3cc2OC)CC1 [Example 196, (S)-1-(4-((4-((2-fluoro-4-((2-(3-fluoropyrrolidin-1-yl)pyridin-4-yl)oxy)phenyl)amino)-7-methoxyquinazolin-6-yl)amino)piperidin-1-yl)prop-2-en-1-one] |
| 60 to 100 nM | < 30 nM | < 30 nM | < 30 nM | 300 to 600 nM | C=CC(=O)N1CCC(Nc2cc3c(Nc4ccc(Oc5ccnc(N6CC[C@@H](C)C6)c5)cc4F)ncnc3cc2OC)CC1 [Example 197, (R)-1-(4-((4-((2-fluoro-4-((2-(3-methylpyrrolidin-1-yl)pyridin-4-yl)oxy)phenyl)amino)-7-methoxyquinazolin-6-yl)amino)piperidin-1-yl)prop-2-en-1-one] |
| 30 to 60 nM | < 30 nM | < 30 nM | < 30 nM | 600 to 1000 nM | C=CC(=O)N1CCC(Nc2cc3c(Nc4ccc(Oc5ccnc(N6CC[C@H](C)C6)c5)cc4F)ncnc3cc2OC)CC1 [Example 198, (S)-1-(4-((4-((2-fluoro-4-((2-(3-methylpyrrolidin-1-yl)pyridin-4-yl)oxy)phenyl)amino)-7-methoxyquinazolin-6-yl)amino)piperidin-1-yl)prop-2-en-1-one] |
| 100 to 300 nM | < 30 nM | < 30 nM | < 30 nM | 60 to 100 nM | C=CC(=O)N1CCC(Nc2cc3c(Nc4ccc(Oc5ccnc(N6CC7CC7C6)c5)cc4F)ncnc3cc2OC)CC1 (centres unmarked) [Example 199, 1-(4-((4-((4-((2-(3-azabicyclo[3.1.0]hexan-3-yl)pyridin-4-yl)oxy)-2-fluorophenyl)amino)-7-methoxyquinazolin-6-yl)amino)piperidin-1-yl)prop-2-en-1-one] |
